Active and inactive are the calls of the source.
What was measured:
[1] = target: T1, Carboxy-terminal domain RNA polymerase II polypeptide A small phosphatase 1 (Homo sapiens, UniProt Q9GZU7); assay: inhibitors of CTDSP1, concentration-response testing, biochemical assay, absorbance-based, actives from ultra-high-throughput screening (AID 540297); format: functional
T1 sequence (Q9GZU7 whole entry): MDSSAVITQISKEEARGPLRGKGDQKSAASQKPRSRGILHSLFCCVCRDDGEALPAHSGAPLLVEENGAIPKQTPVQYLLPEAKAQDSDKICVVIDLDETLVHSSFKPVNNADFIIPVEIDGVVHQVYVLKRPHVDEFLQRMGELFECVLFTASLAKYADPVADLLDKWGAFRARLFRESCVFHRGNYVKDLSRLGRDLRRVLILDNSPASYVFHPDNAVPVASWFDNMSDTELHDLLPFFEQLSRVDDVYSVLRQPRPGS

Estrogen receptor beta [2] = target: T2, Estrogen receptor beta (Homo sapiens, UniProt Q92731);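 also: recombinant ER-beta bound to coactivator SRC1 peptide in presence of estradiol agonist; inhibitors block coactivator peptide binding and lower the FRET signal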
Estrogen receptor beta [3] = target: T2, Estrogen receptor beta; assay: ERβ–SRC-3 coactivator interaction inhibitors, confirmation, orthogonal assay, biochemical, ELISA, streptavidin-HRP readout (AID 1060)
[4] = P. falciparum ATP4 D1247Y mutant growth inhibitors, dose response, NITD609-resistant line, SYBR Green, dry powder (AID 1159571); format: functional, cell-based;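 also: parasites synchronized at ring stage by sorbitol before testing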
[5] = P. falciparum Dd2 growth inhibitors, dose response, SYBR Green, dry powder samples (AID 1159566); format: functional, cell-based;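 also: potency for growth inhibition with lower SYBR green DNA signal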
[6] = P. falciparum 3D7-ScDHODH growth inhibitors, dose response, SYBR Green, dry powder samples (AID 1159570); format: functional, cell-based;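 also: parasite growth measured after 72 hours of compound exposure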
[7] = P. falciparum Dd2 growth inhibitors, dose response, SYBR Green, cherry-picked samples (AID 1159567); format: functional, cell-based
Prothrombin = Prothrombin (Homo sapiens, UniProt P00734); assay: Thrombin 1536 HTS Dose Response Confirmation. [Related pubchem assays: 1046 (Thrombin 1536 HTS; hits were confirmed in this assay)]; format: functional
[8] = cytotoxicity toward NIH3T3 fibroblasts, dose response, counter-screen, cell-based, ATP luminescence, mouse fibroblasts (AID 2010); format: functional;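 also: cells exposed to compound for about 90 hours before reading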
[9] = inhibitors of intracellular T. cruzi replication, confirmation, NIH3T3 host cells, beta-gal luminescence (AID 2044); format: functional, cell-based;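 also: intracellular parasites grown in NIH/3T3 mouse fibroblasts as host cells; luminescent beta-galactosidase reporter signal from transgenic T. cruzi replicating inside host cells; inhibitors lower the luminescence signal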
[10] = HEK293 cell cytotoxicity, dose response, cytotoxicity control, plate reader, cherry-picked samples (AID 743446); format: functional, cell-based
[11] = A549 cell cytotoxicity, dose response, cytotoxicity control, plate reader, cherry-pick, antagonist series (AID 743412); format: functional, cell-based
[12] = target: T3, Heat shock factor protein 1 (Mus musculus, UniProt P38532); assay: HSF1 potentiators in luciferase reporter cells, confirmation, cell-based, NIH3T3, luminescence, dose retest (AID 435004); format: functional;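 also: stress induced by proteasome inhibitor MG132 added 30 min after compound; luciferase reporter driven by HSF1 response element in NIH3T3 cells; actives raise luminescence as potentiators of the MG132 stress response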
T3 sequence (P38532 whole entry): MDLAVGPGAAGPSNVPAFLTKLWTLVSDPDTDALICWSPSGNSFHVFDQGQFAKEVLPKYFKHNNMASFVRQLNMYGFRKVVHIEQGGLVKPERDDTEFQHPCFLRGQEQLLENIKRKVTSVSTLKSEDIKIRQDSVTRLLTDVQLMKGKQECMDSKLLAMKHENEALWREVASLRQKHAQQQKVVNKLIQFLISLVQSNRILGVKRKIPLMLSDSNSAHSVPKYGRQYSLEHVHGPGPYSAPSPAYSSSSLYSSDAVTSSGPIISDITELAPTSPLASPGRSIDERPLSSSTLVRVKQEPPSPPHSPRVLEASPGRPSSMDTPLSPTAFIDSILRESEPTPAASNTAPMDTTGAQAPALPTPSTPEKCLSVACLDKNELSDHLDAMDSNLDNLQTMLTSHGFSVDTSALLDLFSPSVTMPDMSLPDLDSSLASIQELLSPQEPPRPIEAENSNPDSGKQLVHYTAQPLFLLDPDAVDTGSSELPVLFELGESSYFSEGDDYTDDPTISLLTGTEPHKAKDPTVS

[13] = LGR2 antagonists, dose response, cell-based, HEK293, CRE-luciferase reporter, cherry pick, set 2 (AID 743343); format: functional;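 also: transfected cells were stimulated with diluted bursicon conditioned medium after compound addition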
[14] = target: T4, Methionyl-tRNA synthetase, putative (Trypanosoma brucei brucei, UniProt Q38C91); format: functional, Trypanosoma brucei brucei strain 927/4 GUTat10.1
T4 sequence (Q38C91 whole entry): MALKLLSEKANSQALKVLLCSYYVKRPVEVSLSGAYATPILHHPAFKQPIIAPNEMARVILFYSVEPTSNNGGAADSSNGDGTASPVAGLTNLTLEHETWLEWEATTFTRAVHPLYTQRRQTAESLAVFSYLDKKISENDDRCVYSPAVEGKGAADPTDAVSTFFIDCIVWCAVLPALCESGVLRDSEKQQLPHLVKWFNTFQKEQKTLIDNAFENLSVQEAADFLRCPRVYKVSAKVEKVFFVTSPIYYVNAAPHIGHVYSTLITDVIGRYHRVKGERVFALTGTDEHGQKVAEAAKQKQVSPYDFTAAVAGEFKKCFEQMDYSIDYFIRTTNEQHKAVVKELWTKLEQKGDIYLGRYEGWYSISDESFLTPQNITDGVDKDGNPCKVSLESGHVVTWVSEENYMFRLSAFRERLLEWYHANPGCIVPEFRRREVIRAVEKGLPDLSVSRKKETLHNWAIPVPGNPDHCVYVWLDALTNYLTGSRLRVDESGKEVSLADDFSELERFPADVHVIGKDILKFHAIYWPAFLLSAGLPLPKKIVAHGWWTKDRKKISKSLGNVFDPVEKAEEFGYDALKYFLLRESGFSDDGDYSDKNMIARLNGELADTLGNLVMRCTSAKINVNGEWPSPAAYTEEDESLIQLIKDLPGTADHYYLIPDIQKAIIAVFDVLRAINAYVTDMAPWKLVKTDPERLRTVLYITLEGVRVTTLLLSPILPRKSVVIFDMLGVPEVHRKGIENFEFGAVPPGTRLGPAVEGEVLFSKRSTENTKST

[15] = target: T4, Methionyl-tRNA synthetase, putative; format: functional, Trypanosoma brucei brucei strain 927/4 GUTat10.1; remark: listed apart in the source
[16] = Counterscreen for inhibitors of Trypanosoma brucei methionyl tRNA synthetase (MetRS): Luminescence-based cell-based high throughput dose response assay to identify compounds that are cytotoxic to Jurkat human T lymphocyte cells.; format: functional
Beta-galactosidase = Beta-galactosidase (Escherichia coli, UniProt Q8VNN2); assay: Dose response counterscreen for EBI2 assay utilizing the enzyme, b-galactosidase.; format: functional
Protein skinhead-1 = target: T5, Protein skinhead-1 (Caenorhabditis elegans, UniProt P34707); format: functional
T5 sequence (P34707 whole entry): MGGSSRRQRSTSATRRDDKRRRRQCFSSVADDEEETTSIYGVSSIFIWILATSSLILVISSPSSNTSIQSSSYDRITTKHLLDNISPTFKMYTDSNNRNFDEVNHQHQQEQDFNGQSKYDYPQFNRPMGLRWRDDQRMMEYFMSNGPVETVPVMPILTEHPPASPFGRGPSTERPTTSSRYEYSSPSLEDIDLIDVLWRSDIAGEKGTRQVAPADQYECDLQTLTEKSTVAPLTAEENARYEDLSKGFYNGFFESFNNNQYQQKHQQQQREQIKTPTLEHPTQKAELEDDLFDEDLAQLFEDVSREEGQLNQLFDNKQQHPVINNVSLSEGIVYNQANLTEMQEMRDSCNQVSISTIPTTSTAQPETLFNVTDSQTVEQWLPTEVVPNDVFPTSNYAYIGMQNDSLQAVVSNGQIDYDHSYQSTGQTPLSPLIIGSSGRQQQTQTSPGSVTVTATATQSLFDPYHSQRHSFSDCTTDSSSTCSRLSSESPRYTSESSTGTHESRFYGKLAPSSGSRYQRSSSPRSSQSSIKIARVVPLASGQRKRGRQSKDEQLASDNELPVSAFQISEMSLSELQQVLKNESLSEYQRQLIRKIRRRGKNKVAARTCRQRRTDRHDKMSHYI

[17] = MC4R antagonists, dose response, counter-screen for LGR2 antagonist project, cell-based, plate reader, cherry pick (AID 743444); format: functional;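 also: transfected HEK 293 cells stimulated with alpha-MSH peptide; potency of inhibitors of the alpha-MSH evoked signal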
[18] = inhibitors of Vif binding to APOBEC3G peptide, primary screen, biochemical, TR-FRET, GST-Vif 1-94, biotin-A3G peptide, dose response retest (AID 1117319); format: functional;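 also: TR-FRET signal of purified GST-Vif binding a biotinylated A3G peptide; inhibitors lower the FRET signal by blocking Vif and A3G binding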
Estrogen receptor = target: T6, Estrogen receptor (Homo sapiens, UniProt P03372);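 also: potency for inhibiting coactivator peptide recruitment to the receptor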
T6 sequence (P03372 whole entry): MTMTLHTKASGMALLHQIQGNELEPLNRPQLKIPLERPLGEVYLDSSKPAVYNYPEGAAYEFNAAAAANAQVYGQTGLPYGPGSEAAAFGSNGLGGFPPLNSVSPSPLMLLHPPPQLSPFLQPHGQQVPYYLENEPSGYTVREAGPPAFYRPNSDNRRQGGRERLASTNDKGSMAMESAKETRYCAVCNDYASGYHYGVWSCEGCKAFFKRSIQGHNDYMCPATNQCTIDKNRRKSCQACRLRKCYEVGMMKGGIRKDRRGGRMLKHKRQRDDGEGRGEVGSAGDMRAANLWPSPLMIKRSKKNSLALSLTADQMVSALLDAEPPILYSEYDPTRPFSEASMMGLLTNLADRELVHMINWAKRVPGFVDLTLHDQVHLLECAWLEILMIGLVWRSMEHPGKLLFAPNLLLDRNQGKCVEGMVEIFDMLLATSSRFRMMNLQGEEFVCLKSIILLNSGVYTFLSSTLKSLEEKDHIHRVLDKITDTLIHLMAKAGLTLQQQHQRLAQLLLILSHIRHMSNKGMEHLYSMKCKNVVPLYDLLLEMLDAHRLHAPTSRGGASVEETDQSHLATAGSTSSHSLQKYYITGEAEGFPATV

[19] = NIH:OVCAR-3 ovarian cancer cell cytotoxicity, dose response, PAX8 inhibitor project, plate reader, dry powder samples (AID 743044); format: functional, cell-based
[20] = cytotoxicity in OVCAR8 ovarian cancer cells, dose response, PAX8 project, cell-based, plate reader, dry powder samples (AID 743197); format: functional; conditions: OVCAR-8
Paired box protein Pax-8 = Paired box protein Pax-8 (Homo sapiens, UniProt Q06710); assay: inhibitors of PAX8-driven TPO luciferase reporter, dose response, RMG-I cells, cherry-pick (AID 687027); format: functional, cell-based;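 also: luciferase reporter driven by Pax8 target thyroperoxidase promoter measured by SteadyGlo luminescence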
Chain of Paired box protein Pax-8 (Q06710 whole entry): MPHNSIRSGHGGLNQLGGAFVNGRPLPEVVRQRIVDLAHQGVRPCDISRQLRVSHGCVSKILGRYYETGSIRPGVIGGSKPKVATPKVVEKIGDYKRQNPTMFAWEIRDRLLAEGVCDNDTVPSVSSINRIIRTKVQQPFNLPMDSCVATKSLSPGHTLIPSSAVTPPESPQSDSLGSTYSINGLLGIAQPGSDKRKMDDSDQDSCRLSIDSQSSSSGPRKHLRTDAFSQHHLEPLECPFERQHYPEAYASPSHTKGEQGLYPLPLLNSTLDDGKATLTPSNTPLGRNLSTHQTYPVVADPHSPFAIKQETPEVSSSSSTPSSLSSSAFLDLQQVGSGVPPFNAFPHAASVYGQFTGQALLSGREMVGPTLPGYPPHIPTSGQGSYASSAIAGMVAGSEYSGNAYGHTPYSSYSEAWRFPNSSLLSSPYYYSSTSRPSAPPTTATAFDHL

T2 sequence (Q92731 whole entry): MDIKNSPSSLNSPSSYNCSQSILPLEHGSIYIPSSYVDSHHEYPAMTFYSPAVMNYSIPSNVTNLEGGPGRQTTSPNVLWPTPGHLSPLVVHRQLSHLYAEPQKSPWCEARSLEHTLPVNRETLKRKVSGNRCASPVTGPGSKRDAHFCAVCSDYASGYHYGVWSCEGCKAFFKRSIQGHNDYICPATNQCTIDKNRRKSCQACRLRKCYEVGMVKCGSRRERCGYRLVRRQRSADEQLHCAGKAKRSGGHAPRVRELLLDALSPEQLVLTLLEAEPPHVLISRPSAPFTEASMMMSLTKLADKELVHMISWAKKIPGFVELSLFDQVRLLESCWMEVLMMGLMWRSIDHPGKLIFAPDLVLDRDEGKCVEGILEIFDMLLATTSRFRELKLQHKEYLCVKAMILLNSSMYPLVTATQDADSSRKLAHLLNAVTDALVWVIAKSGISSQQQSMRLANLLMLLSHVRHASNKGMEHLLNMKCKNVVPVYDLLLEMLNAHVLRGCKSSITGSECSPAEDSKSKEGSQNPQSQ
Chain of Beta-galactosidase (Q8VNN2 whole entry): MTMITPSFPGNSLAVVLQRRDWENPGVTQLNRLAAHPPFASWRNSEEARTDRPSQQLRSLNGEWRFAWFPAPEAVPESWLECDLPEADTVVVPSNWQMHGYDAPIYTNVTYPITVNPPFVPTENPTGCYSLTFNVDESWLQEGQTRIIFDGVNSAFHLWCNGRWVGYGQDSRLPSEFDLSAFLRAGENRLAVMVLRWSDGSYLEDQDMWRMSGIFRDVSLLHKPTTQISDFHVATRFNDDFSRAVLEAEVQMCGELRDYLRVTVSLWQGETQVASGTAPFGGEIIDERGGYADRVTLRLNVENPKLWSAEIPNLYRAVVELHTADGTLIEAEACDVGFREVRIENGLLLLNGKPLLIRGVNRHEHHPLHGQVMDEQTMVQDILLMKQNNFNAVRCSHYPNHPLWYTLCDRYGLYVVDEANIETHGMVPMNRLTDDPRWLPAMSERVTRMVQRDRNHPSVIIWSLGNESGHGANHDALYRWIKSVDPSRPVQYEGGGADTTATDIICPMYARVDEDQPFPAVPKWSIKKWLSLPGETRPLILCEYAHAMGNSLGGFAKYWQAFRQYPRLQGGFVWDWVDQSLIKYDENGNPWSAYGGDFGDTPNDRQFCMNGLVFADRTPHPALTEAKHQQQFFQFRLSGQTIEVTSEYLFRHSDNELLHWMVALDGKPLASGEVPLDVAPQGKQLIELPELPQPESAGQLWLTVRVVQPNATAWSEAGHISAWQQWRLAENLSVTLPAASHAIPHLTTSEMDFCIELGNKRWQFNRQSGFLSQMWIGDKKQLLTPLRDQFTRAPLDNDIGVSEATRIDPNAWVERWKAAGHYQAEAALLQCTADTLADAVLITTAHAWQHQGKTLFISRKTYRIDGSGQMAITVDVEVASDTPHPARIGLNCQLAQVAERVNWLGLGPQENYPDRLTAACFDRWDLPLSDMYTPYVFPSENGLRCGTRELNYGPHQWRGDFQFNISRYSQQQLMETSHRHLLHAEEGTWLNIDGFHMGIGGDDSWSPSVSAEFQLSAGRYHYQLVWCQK

## C=CCn1c(COc2ccccc2F)nnc1SCC(=O)NC(=O)NCc1ccco1
[1]
  IC50: 12.2 µM (active)
Estrogen receptor beta [2]
  IC50: 3.27 µM (active)
Estrogen receptor beta [3]
  IC50: > 50 µM (not active)

## COCC#Cc1ccc(CC[C@H]2O[C@H]3CC[C@H](CO)O[C@H]3C[C@@H]2n2cc(C3CC3)nn2)cc1
[4]
  AC50: 3.76 µM (active)
[5]
  AC50: 2.15 µM (active)
[6]
  AC50: 3.37 µM (active)
[7]
  AC50: 2.33 µM (active)

## Cc1ccc(C)n1-c1ccc(-c2nnco2)cc1
Prothrombin
  IC50: > 50 µM (not active)

## CC[n+]1ccccc1/C=C1\Sc2ccc(C)cc2N1C
[8]
  EC50: > 60 µM (not active)
[9]
  EC50: < 0.1 µM (active)
cells
  EC50: 0.022 µM (active)

## COc1cc2c(cc1OC)CN(c1ccc([N+](=O)[O-])c(C(F)(F)F)c1)CC2
[10]
  AC50: > 52 µM (inactive)
[11]
  AC50: > 52 µM (inactive)
[12]
  EC50: 43.1 µM (active)
[13]
  AC50: 29.6 µM (active)

## O=C(CSc1n[nH]c2c3cc(F)ccc3nc-2n1)NCc1ccc(F)cc1
[14]
  IC50: 119 µM (inactive)
[15]
  IC50: 1.42 µM (active)
[16]
  IC50: 83.3 µM (inactive)

## CCOC(=O)CSc1nnc(CNC(=O)c2ccc(S(=O)(=O)N3CCCC3)cc2)n1C
Prothrombin
  IC50: > 50 µM (not active)

## Cc1ccc(/C=C/C(=O)N2CCC(Cc3ccccc3)CC2)cc1
Beta-galactosidase
  IC50: > 80 µM (inactive)

## Cc1cc(=O)[nH]c(SCC(=O)NCC2CCCO2)n1 (centres undefined)
Prothrombin
  IC50: > 50 µM (not active)

## Clc1ccc(-c2cc(-c3ccccn3)on2)c(Cl)c1
Protein skinhead-1
  IC50: > 100 µM (inactive)
[10]
  AC50: > 52 µM (inactive)
[11]
  AC50: > 52 µM (inactive)
[17]
  AC50: 7.08 µM (active)
[13]
  AC50: 3.73 µM (active)

## Cc1ccc(S(=O)(=O)N2CCN(Cc3nc(O)c4c(C)c(C)sc4n3)CC2)cc1
[18]
  IC50: > 100 µM (active)

## Cc1ccc(C)c(OCCC(=O)Nc2cccc(S(=O)(=O)NC3=NCCCCC3)c2)c1
[14]
  IC50: 98.3 µM (inactive)
[15]
  IC50: 46.4 µM (inactive)
[16]
  IC50: 83.3 µM (inactive)

## COc1cc(OC)cc(C(=O)N2CCN(C(=O)COc3ccc4ccccc4c3)CC2)c1
Beta-galactosidase
  IC50: > 80 µM (inactive)

## CN1C(=O)CC(N2CCN(C(=O)c3ccccc3)CC2)C1=O (centres undefined)
[18]
  IC50: > 100 µM (active)

## OC[C@H]1Nc2ccc(C#Cc3cccnc3)cc2[C@H]2NCC[C@H]21
[4]
  AC50: 11.2 µM (active)
[5]
  AC50: 7.59 µM (active)
[6]
  AC50: 8.84 µM (active)
[7]
  AC50: 1.08 µM (active)

## CC1CCc2c(sc(NC(=O)c3ccc(Cn4cc([N+](=O)[O-])cn4)o3)c2C#N)C1 (centres undefined)
[1]
  IC50: 4.29 µM (active)
Estrogen receptor
  IC50: 8.35 µM (active)
Estrogen receptor beta [2]
  IC50: 2.32 µM (active)
Estrogen receptor beta [3]
  IC50: 11.1 µM (not active)

## C[C@@H]1CCCCO[C@@H](CN(C)C(=O)Nc2ccc(C(F)(F)F)cc2)[C@H](C)CN([C@H](C)CO)C(=O)c2cc(NS(=O)(=O)c3ccc(F)cc3)ccc2O1
[19]
  AC50: 23.5 µM (active)
[20]
  AC50: > 70 µM (inactive)
Paired box protein Pax-8
  AC50: 5.62 µM (active)

## CCC(C)N1CCN(C(=O)COc2ccc3ccccc3c2)CC1 (centres undefined)
Beta-galactosidase
  IC50: > 80 µM (inactive)
